Patent US20250215029A1 (Recludix Pharma, Inc., priority 2022, published 2025)

Columns and labels:
[1] = biological target: T1, Recombinant STAT6 protein (STAT6 (W123-T658)) (Homo sapiens, UniProt P42226); test: STAT6 Fluorescence Polarization (FP) Assay; assay type: binding; settings: STAT6 250 nM, probe 5-FAM-Ap[…]-NH2 2 nM, 45-minute incubation; read-out: STAT6 (FP assay IC50)
T1 construct: Recombinant STAT6 protein (STAT6 (W123-T658))
T1 sequence (P42226 123-658): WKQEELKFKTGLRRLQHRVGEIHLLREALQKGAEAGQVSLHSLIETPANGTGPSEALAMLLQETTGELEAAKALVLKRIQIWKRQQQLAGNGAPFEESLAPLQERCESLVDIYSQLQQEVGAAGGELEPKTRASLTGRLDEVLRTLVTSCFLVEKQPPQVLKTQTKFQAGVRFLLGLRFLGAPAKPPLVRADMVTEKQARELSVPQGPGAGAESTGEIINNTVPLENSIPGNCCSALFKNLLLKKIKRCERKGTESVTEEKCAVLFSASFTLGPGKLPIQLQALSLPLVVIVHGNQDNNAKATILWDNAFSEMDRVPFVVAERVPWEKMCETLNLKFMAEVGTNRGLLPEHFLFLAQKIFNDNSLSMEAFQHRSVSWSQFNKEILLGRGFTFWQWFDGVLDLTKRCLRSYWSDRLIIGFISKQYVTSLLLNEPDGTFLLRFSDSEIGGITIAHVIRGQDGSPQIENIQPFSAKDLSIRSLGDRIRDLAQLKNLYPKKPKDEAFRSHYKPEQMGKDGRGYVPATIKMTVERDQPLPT
Summary of the method: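 Probe displacement format: serially diluted compounds incubated 45 min at room temperature with 2 nM fluorescent phosphopeptide and 250 nM STAT6 (W123-T658) in pH 7.4 HEPES buffer, 1% DMSO final. Polarization signal plotted against log concentration, IC50 fitted by nonlinear regression.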

[2] = biological target: T2, Recombinant STAT3 protein (STAT3 (G127-I722)) (Homo sapiens, UniProt P40763); test: STAT3 Fluorescence Polarization (FP) Assay; assay type: binding; settings: STAT3 25 nM, probe 5-FAM-GpYLPQTV-NH2 2 nM, 45-minute incubation; read-out: STAT3 (FP assay IC50)
T2 construct: Recombinant STAT3 protein (STAT3 (G127-I722))
Summary of the method: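 Displacement of a fluorescent phosphotyrosine peptide (5-FAM-GpYLPQTV-NH2, 2 nM) from 25 nM recombinant STAT3 G127-I722 was monitored by FP after 45 min at room temperature.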

T2 sequence (P40763 127-722): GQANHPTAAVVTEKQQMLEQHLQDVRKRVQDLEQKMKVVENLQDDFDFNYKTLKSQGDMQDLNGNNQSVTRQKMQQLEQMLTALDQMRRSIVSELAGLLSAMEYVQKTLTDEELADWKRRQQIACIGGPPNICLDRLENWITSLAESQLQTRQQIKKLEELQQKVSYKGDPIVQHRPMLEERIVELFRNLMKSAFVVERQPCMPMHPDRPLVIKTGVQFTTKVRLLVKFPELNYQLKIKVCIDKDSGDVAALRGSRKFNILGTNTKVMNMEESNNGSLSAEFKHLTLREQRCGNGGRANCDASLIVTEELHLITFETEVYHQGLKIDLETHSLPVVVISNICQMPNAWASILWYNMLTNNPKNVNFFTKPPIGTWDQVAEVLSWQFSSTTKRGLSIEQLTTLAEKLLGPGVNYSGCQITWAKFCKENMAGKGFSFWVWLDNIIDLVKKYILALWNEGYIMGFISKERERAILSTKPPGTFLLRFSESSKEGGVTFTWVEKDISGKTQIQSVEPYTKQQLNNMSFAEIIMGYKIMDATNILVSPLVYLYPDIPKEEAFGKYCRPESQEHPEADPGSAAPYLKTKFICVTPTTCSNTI

| Structure (SMILES) | IC50 [1] [µM] | IC50 [2] [µM] |
| --- | --- | --- |
| O=C(N[C@H]1CC[C@H](O)C[C@H]2CC[C@@H](C(=O)N3CC(C(=O)N4CCOCC4)C3)N2C1=O)c1cc2cc(C(F)(F)P(=O)(O)O)ccc2s1 [Compound 5, (difluoro(2-(((3S,6S,9S,10aR)-9-hydroxy-3-(3-(morpholine-4-carbonyl)azetidine-1-carbonyl)-5-oxodecahydropyrrolo [1,2-a]azocin-6-yl)carbamoyl)benzo[b]thiophen-5-yl)methyl)phosphonic acid] | 3 to 30 | 0.1 to 1 |
| O=C(N[C@H]1CC[C@@H](OCc2ccccc2)C[C@H]2CC[C@@H](C(=O)N3CC(C(=O)N4CCOCC4)C3)N2C1=O)c1cc2cc(C(F)(F)P(=O)(O)O)ccc2s1 [Compound 6, ((2-(((3S,6S,9R,10aR)-9-(benzyloxy)-3-(3-(morpholine-4-carbonyl)azetidine-1-carbonyl)-5-oxodecahydropyrrolo [1,2-a]azocin-6-yl)carbamoyl)benzo[b]thiophen-5-yl)difluoromethyl) phosphonic acid] | 3 to 30 | 0.1 to 1 |
| O=C(N[C@H]1C[C@H](OCc2ccccc2)CC[C@H]2CC[C@@H](C(=O)N3CC(C(=O)N4CCOCC4)C3)N2C1=O)c1cc2cc(C(F)(F)P(=O)(O)O)ccc2s1 [Compound 7, ((2-(((3S,6S,8R, 10aR)-8-(benzyloxy)-3-(3-(morpholine-4-carbonyl)azetidine-1-carbonyl)-5-oxodecahydropyrrolo [1,2-a]azocin-6-yl)carbamoyl)benzo[b]thiophen-5-yl)difluoromethyl) phosphonic acid] | 3 to 30 | 0.1 to 1 |
| O=C(N[C@H]1C[C@@H](OCc2ccccc2)CC[C@H]2CC[C@@H](C(=O)N3CC(C(=O)N4CCOCC4)C3)N2C1=O)c1cc2cc(C(F)(F)P(=O)(O)O)ccc2s1 [Compound 8, ((2-(((3S,6S,8S,10aR)-8-(benzyloxy)-3-(3-(morpholine-4-carbonyl)azetidine-1-carbonyl)-5-oxodecahydropyrrolo [1,2-a]azocin-6-yl)carbamoyl)benzo [b]thiophen-5-yl)difluoromethyl) phosphonic acid] | 3 to 30 | 0.1 to 1 |
| CCO[C@@H]1CC[C@H](NC(=O)c2cc3cc(C(F)(F)P(=O)(O)O)ccc3s2)C(=O)N2[C@H](CC[C@H]2C(=O)N2CC(C(=O)N3CCOCC3)C2)C1 [Compound 9, ((2-(((3S,6S,9R,10aR)-9-ethoxy-3-(3-(morpholine-4-carbonyl)azetidine-1-carbonyl)-5-oxodecahydropyrrolo [1,2-a]azocin-6-yl)carbamoyl)benzo[b]thiophen-5-yl)difluoromethyl) phosphonic acid] | 3 to 30 | 0.1 to 1 |
| CCO[C@H]1CC[C@H]2CC[C@@H](C(=O)N3CC(C(=O)N4CCOCC4)C3)N2C(=O)[C@@H](NC(=O)c2cc3cc(C(F)(F)P(=O)(O)O)ccc3s2)C1 [Compound 10, ((2-(((3S,6S,8S,10aR)-8-ethoxy-3-(3-(morpholine-4-carbonyl)azetidine-1-carbonyl)-5-oxodecahydropyrrolo [1,2-a]azocin-6-yl)carbamoyl)benzo[b]thiophen-5-yl)difluoromethyl) phosphonic acid] | 3 to 30 | 0.1 to 1 |
| CCO[C@@H]1CC[C@H]2CC[C@@H](C(=O)N3CC(C(=O)N4CCOCC4)C3)N2C(=O)[C@@H](NC(=O)c2cc3cc(C(F)(F)P(=O)(O)O)ccc3s2)C1 [Compound 11, ((2-(((3S,6S,8R,10aR)-8-ethoxy-3-(3-(morpholine-4-carbonyl)azetidine-1-carbonyl)-5-oxodecahydropyrrolo [1,2-a]azocin-6-yl)carbamoyl)benzo[b]thiophen-5-yl)difluoromethyl) phosphonic acid] | 3 to 30 | 0.1 to 1 |
| N#C[C@H]1CN(C(=O)[C@@H]2CC[C@@H]3CC[C@H](O)C[C@H](NC(=O)c4cc5cc(C(F)(F)P(=O)(O)O)ccc5s4)C(=O)N32)C[C@@H]1c1ccccc1 [Compound 12, ((2-(((3S,6S,8S,10aR)-3-((3R,4S)-3-cyano-4-phenylpyrrolidine-1-carbonyl)-8-hydroxy-5-oxodecahydropyrrolo [1,2-a]azocin-6-yl)carbamoyl)benzo[b]thiophen-5-yl)difluoromethyl) phosphonic acid] | ≤ 0.3 | 1 to 10 |
| C[C@]1(O)CC[C@H](NC(=O)c2cc3cc(C(F)(F)P(=O)(O)O)ccc3s2)C(=O)N2[C@H](CC[C@H]2C(=O)N2CC(C(=O)N3CCOCC3)C2)C1 [Compound 13, (difluoro(2-(((3S,6S,9S,10aR)-9-hydroxy-9-methyl-3-(3-(morpholine-4-carbonyl)azetidine-1-carbonyl)-5-oxodecahydropyrrolo [1,2-a]azocin-6-yl)carbamoyl)benzo [b]thiophen-5-yl)methyl) phosphonic acid] | 3 to 30 | < 0.1 |

Next, values leading:

| IC50 [1] [µM] | IC50 [2] [µM] | Structure (SMILES) |
| --- | --- | --- |
| 0.3 to 3 | < 0.1 | O=C(N[C@H]1CC[C@H](O)C[C@H]2CC[C@@H](C(=O)N3CC(n4ccnc4)C3)N2C1=O)c1cc2cc(C(F)(F)P(=O)(O)O)ccc2s1 [Compound 15, ((2-(((3S,6S,9S,10aR)-3-(3-(1H-imidazol-1-yl)azetidine-1-carbonyl)-9-hydroxy-5-oxodecahydropyrrolo [1,2-a]azocin-6-yl)carbamoyl)benzo[b]thiophen-5-yl)difluoromethyl) phosphonic acid] |
| 0.3 to 3 | < 0.1 | O=C(N[C@H]1CC[C@H](O)C[C@H]2CC[C@@H](C(=O)N3CC(c4cccnc4)C3)N2C1=O)c1cc2cc(C(F)(F)P(=O)(O)O)ccc2s1 [Compound 16, (difluoro(2-(((3S,6S,9S,10aR)-9-hydroxy-5-oxo-3-(3-(pyridin-3-yl)azetidine-1-carbonyl)decahydropyrrolo[1,2-a]azocin-6-yl)carbamoyl)benzo[b]thiophen-5-yl)methyl) phosphonic acid] |
| 3 to 30 | < 0.1 | C[C@@]1(O)CC[C@H]2CC[C@@H](C(=O)N3CC(C(=O)N4CCOCC4)C3)N2C(=O)[C@@H](NC(=O)c2cc3cc(C(F)(F)P(=O)(O)O)ccc3s2)C1 [Compound 17, (difluoro(2-(((3S,6S,8R,10aR)-8-hydroxy-8-methyl-3-(3-(morpholine-4-carbonyl)azetidine-1-carbonyl)-5-oxodecahydropyrrolo [1,2-a]azocin-6-yl)carbamoyl)benzo[b]thiophen-5-yl)methyl) phosphonic acid] |
| 3 to 30 | 0.1 to 1 | O=C(N[C@H]1CC[C@H](N2CCC2)C[C@H]2CC[C@@H](C(=O)N3CC(C(=O)N4CCOCC4)C3)N2C1=O)c1cc2cc(C(F)(F)P(=O)(O)O)ccc2s1 [Compound 20, ((2-(((3S,6S,9S,10aR)-9-(azetidin-1-yl)-3-(3-(morpholine-4-carbonyl)azetidine-1-carbonyl)-5-oxodecahydropyrrolo [1,2-a]azocin-6-yl)carbamoyl)benzo[b]thiophen-5-yl)difluoromethyl) phosphonic acid] |
| ≤ 0.3 | 0.1 to 1 | CN(C(=O)[C@@H]1CC[C@@H]2CCCC[C@H](NC(=O)c3cc4cc(C(F)(F)P(=O)(O)O)ccc4s3)C(=O)N21)c1ccc2nnccc2c1 [Compound 24, ((2-(((3S,6S,10aS)-3-(cinnolin-6-yl (methyl)carbamoyl)-5-oxodecahydropyrrolo [1,2-a]azocin-6-yl)carbamoyl)benzo[b]thiophen-5-yl)difluoromethyl) phosphonic acid] |
